Source: ChEMBL document CHEMBL1156431, “15-deoxyspergualin primarily targets the trafficking of apicoplast proteins in Plasmodium falciparum” (J Biol Chem, 2007)
Calls of active or inactive are those of the source. The rule behind the calls is not given here.

Tests used:
[1] = Inhibition of spermidine transporter-mediated [3H]spermidine transport in human red blood cells; type: cell-based
[2] = test system: Plasmodium falciparum; experiment: Inhibition of fatty acid synthesis in late trophozoite Plasmodium falciparum FCK2 at 1 uM; type: functional, organism-based
[3] = Inhibition of putrescine transporter-mediated [3H]putrescine transport in human red blood cells; type: cell-based
[4] = test system: Plasmodium falciparum; experiment: Antimalarial activity against Plasmodium falciparum FCK2 infected human erythrocytes with exogenous spermidine; type: functional, organism-based
[5] = test system: Plasmodium falciparum; experiment: TufA expression level in Plasmodium falciparum FCK2 first asexual cycle; type: functional, organism-based
[6] = test system: Plasmodium falciparum; experiment: Actin expression level in Plasmodium falciparum FCK2; type: functional, organism-based
[7] = test system: Plasmodium falciparum; experiment: Inhibition of spermidine transporter-mediated [3H]spermidine transport in Plasmodium falciparum FCK2 infected human red blood cells at 1 mM
[8] = test system: Plasmodium falciparum; experiment: Growth inhibition of Plasmodium falciparum FCK2 as apicoplast copy numbers at 1 uM in [3H]hypoxanthine uptake; type: functional
[9] = test system: Plasmodium falciparum; experiment: Decreased processed NEAT protein FabG level in Plasmodium falciparum FCK2 first asexual cycle; type: functional, organism-based
[10] = test system: Plasmodium falciparum; experiment: Inhibition of fatty acid synthesis in Plasmodium falciparum FCK2 shizonts at 1 uM; type: functional, organism-based
[11] = test system: Plasmodium falciparum; experiment: Antimalarial activity as reduced parasitaemia after 12 hrs against Plasmodium falciparum FCK2 second asexual cycle at 1 uM by [3H]hypoxanthine uptake; type: functional, organism-based
[12] = test system: Plasmodium falciparum; experiment: Inhibition of fatty acid synthesis in Plasmodium falciparum FCK2 trophozoites at 1 uM; type: functional, organism-based
[13] = test system: Plasmodium falciparum; experiment: Inhibition of fatty acid synthesis in Plasmodium falciparum FCK2 ring stage at 1 uM; type: functional, organism-based
[14] = Inhibition of putrescine transporter-mediated [3H]putrescine transport in Plasmodium falciparum FCK2 infected human red blood cells
[15] = test system: Plasmodium falciparum; experiment: Antimalarial activity against Plasmodium falciparum FCK2 by [3H]hypoxanthine uptake; type: functional, organism-based
[16] = test system: Plasmodium falciparum; experiment: Inhibition of protein synthesis in Plasmodium falciparum FCK2 by [35S]methionine uptake; type: functional, organism-based
[17] = test system: Plasmodium falciparum; experiment: Inhibition of fatty acid synthesis in Plasmodium falciparum FCK2 trophozoites at 10 uM; type: functional, organism-based
[18] = test system: Plasmodium falciparum; experiment: Growth inhibition as apicoplast copy number of Plasmodium falciparum FCK2 at 100 nM by [3H]hypoxanthine uptake; type: functional

## N=C(N)NCCCCCCC(=O)NC(O)C(=O)NCCCCNCCCN (centres undefined) [GUSPERIMUS]
[1]
  IC50: 372 µM
[2]
  Activity: inactive
[3]
  IC50: 924 µM
[4]
  Activity: Active
[5]
  Activity: inactive
[6]
  Activity: inactive
[7]
  Activity: inactive
[8]
  Activity: 0.13
[9]
  Activity: Active
[10]
  Activity: Active
[11]
  Activity: inactive
[12]
  Activity: inactive
[13]
  Activity: inactive
[14]
  IC50: 1.12 mM
[15]
  IC50: 148 nM
[16]
  IC50: 443 µM

## Oc1cc(Cl)ccc1Oc1ccc(Cl)cc1Cl
[17]
  Activity: Active

## CCC[C@@H]1C[C@@H](C(=O)N[C@@H]([C@H]2O[C@H](SC)[C@H](O)[C@@H](O)[C@H]2O)[C@H](C)Cl)N(C)C1 [CLINDAMYCIN]
[18]
  Activity: 0.4
[5]
  Activity: Active
